{
  "source": "patent US20090176759A1",
  "about": "“LEUKEMIC STEM CELL ABLATION” (ChemGenex Pharmaceuticals, Inc., priority 2007, published 2009)",
  "key": {"[1]": {"test_system": "B-cells containing BCR-ABL-T315I", "experiment": "Proliferation, number of viable cells determined by trypan blue", "format": "cell-based", "description": "(§1) In FIG. 1A the number of viable cells at the indicated drug concentrations was determined by trypan blue. In FIG. 1B the expression of ABL and MCL-1 in K562 (myeloid) cells is inhibited by HHT. In FIG. 1C the expression of ABL in lymphoid cells with BCR-ABL or the BCR-ABL T315I mutation is inhibited by HHT.\n(§2) Antibodies for Western Blot analysis against c-ABL, Mcl-1 and β-actin were purchased from Santa Cruz Biothechology (Santa Cruz, Calif.). Protein lysates were prepared by lysing cells in RIPA buffer and immunoprecipitation. The retroviral vector MSCV-IRES-eGFP carrying the BCR-ABL cDNA was used to make virus stock for bone marrow transduction/transplantation. Four- to 10-week-old wild-type BABL/c or C57BL/6 (The Jackson Laboratory) and homozygous SRC triple gene knockout (Lyn−/−Hck−/−Fgr−/−) mice were used for leukemogenesis experiments. HHT (ChemGenex Pharmaceuticals, Inc, CA) was dissolved in accompanying diluent to a stock concentration of 1 mg/ml. Further dilutions were made to working concentrations using media or water."}, "[2]": {"test_system": "B-cells containing BCR-ABL-WT", "experiment": "Proliferation, number of viable cells determined by trypan blue", "format": "cell-based", "description": "as §1, §2"}, "[3]": {"test_system": "K562 myeloid cells", "experiment": "Proliferation, number of viable cells determined by trypan blue", "format": "cell-based", "description": "as §1, §2"}, "[4]": {"test_system": "ABL", "experiment": "Western Blot analysis of ABL expression", "format": "cell-based", "description": "as §1, §2"}, "[5]": {"test_system": "MCL-1", "experiment": "Western Blot analysis of MCL-1 expression in K562 cells", "format": "cell-based", "conditions": "K562 (myeloid) cells", "description": "as §1, §2"}, "[6]": {"test_system": "BCR-ABL-WT-induced CML", "experiment": "Mice with BCR-ABL-WT-induced CML treated with HHT", "format": "in vivo", "description": "(§3) FIG. 2A is a FACS analysis of circulating GFP+ cells in mice with BCR-ABL-WT-induced CML. […] The number of circulating leukemic cells (calculated as percentage of Gr-1+GFP+ cells×white blood cell count) in mice with BCR-ABL-WT-induced CML treated with placebo or HHT for 4 days was determined on day 12 after transplantation. FIG. 2B depicts a bar graph for the leukemic cells as well as a bar graph for spleen weight of the mice treated with placebo or HHT.\nas §2\nas §3, with “of circulating leukemic GFP+ cells” for “of circulating GFP+ cells”"}, "[7]": {"test_system": "BCR-ABL-T315I-induced CML", "experiment": "Mice with BCR-ABL-T315I-induced CML treated with HHT", "format": "in vivo", "description": "In FIG. 3A, the number of circulating leukemic cells (calculated as percentage of Gr-1+GFP+ cells×white blood cell count) in mice with BCR-ABL-T315I-induced CML treated with placebo or HHT was determined on day 14 after transplantation.\nas §2\nThe number of circulating leukemic cells (calculated as percentage of Gr-1+GFP+ cells×white blood cell count) in mice with BCR-ABL-T315I-induced CML treated with placebo or HHT (0.5 mg/kg) was determined on day 14 after transplantation."}, "[8]": {"test_system": "IM-resistant T315I+CML", "experiment": "Multicenter open-label phase 2/3 study of subcutaneous omacetaxine, efficacy", "format": "in vivo, human", "from_the_text": "As used herein, a cytological response to treatment with cephalotaxine and/or TKI is a response that occurs in the bone marrow rather than just in the peripheral blood. There are at least three cytological responses: (1) a cytogenetic response (CR); (2) a major cytogenetic response (MCR); and a complete cytogenetic response (CCR). Determination of such responses is based on the measurement of the number of peripheral blood and/or bone marrow cells having a marker that is associated with a particular leukemia. Such markers include cell surface antigens, aberrant proteins, and genetic modifications. A cytogenetic response occurs if the number or percentage of cells with such a marker decreases during treatment. A major cytogenetic response occurs if the number or percentage of such cells falls below 35%. A complete cytogenetic response occurs when no cells containing the marker are detected. For example, CML is characterized by the Ph+ chromosome. A cytogenetic response has occurred if the number of Ph+ chromosomes decreases at all during treatment. If the Ph+ percentage drops to 35% or less, it is considered a major cytogenetic response; 0% Ph+ is a complete cytogenetic response.\nAs used herein, a hematological response occurs when there is a change in the white blood cell count of a patient following treatment with cephalotaxine and/or TKI. The change in white blood cell count can be in the peripheral blood and the bone marrow although the change may be observed only in the peripheral blood. The response can be a partial reduction in white cell count or complete reduction to normal values (e.g. 10,000-12,000 cells […].)\nThis example summarizes human clinical trials using HHT to treat patients with IM-resistant T315I+CML.\nA multicenter open-label phase 2/3 study evaluating safety and efficacy of omacetaxine administered subcutaneously (SC) in patients with IM-resistant T315I+CML in all phases of the disease is being conducted.\nInduction phase—1.25 mg/m2 twice daily SC for 14 consecutive days every 28 days until complete hematologic response (CHR) or hematologic improvement has been achieved.\nMaintenance therapy—1.25 mg/m2 twice daily SC for 7 days every 28 days for up to 24 months.\nDoses were adjusted to maintain adequate WBC and platelet control by increasing or decreasing the number of days of administration of omacetaxine."}, "[9]": {"conditions": "Accelerated Phase, N = 5, median (range)"}, "[10]": {"conditions": "Chronic Phase, N = 20, median (range)"}},
  "data": [
    {"compound": "COC(=O)C[C@](O)(CCCC(C)(C)O)C(=O)O[C@@H]1C(OC)=C[C@]23CCCN2CCc2cc4c(cc2[C@H]13)OCO4", "note": "[HHT, Homoharringtonine]", "values": [
      {"measurement": "proliferation", "setting": "[1]", "value": "inhibits the proliferation"},
      {"measurement": "proliferation", "setting": "[2]", "value": "inhibits the proliferation"},
      {"measurement": "proliferation", "setting": "[3]", "value": "inhibits the proliferation"},
      {"measurement": "expression of ABL", "setting": "[4]; K562 (myeloid) cells", "value": "inhibited"},
      {"measurement": "expression of ABL", "setting": "[4]; lymphoid cells with BCR-ABL", "value": "inhibited"},
      {"measurement": "expression of ABL", "setting": "[4]; lymphoid cells with the BCR-ABL T315I mutation", "value": "inhibited"},
      {"measurement": "expression of MCL-1", "setting": "[5]", "value": "inhibited"},
      {"measurement": "survival", "setting": "[6]; BCR-ABL-WT CML mice, HHT vs placebo", "value": "significantly increased"},
      {"measurement": "number of circulating leukemic cells (percentage of Gr-1+GFP+ cells×white blood cell count)", "setting": "[6]; HHT 0.5 mg/kg for 4 days, day 12 after transplantation, vs placebo", "value": "significantly reduces"},
      {"measurement": "size of the spleen (spleen weight)", "setting": "[6]; HHT 0.5 mg/kg vs placebo", "value": "significantly reduces"},
      {"measurement": "survival", "setting": "[7]; BCR-ABL-T315I CML mice, HHT vs placebo", "value": "prolonged survival"},
      {"measurement": "number of circulating leukemic cells (percentage of Gr-1+GFP+ cells×white blood cell count)", "setting": "[7]; HHT 0.5 mg/kg, day 14 after transplantation, vs placebo", "value": "significantly reduced"},
      {"measurement": "Median Duration of Response, Cytogenetic Response Minimal", "setting": "[8]; Accelerated Phase, N = 5", "value": 2.3, "unit": "Months"},
      {"measurement": "Median Duration of Response, Hematologic Response HI", "setting": "[8]; Accelerated Phase, N = 5", "value": 2.8, "unit": "Months"},
      {"measurement": "Median Duration of Response, Hematologic Response CHR", "setting": "[8]; [9]", "value": "9.6 (8.3-10.9+) Months"},
      {"measurement": "Median Duration of Response, Hematologic Response RCP", "setting": "[8]; [9]", "value": "2.0 (2.0-2.0+) Months"},
      {"measurement": "Complete Hematologic Response (CHR)", "setting": "[8]; Accelerated Phase, N = 11", "value": "2 (18) Number (%)"},
      {"measurement": "Cytogenetic Response, Minimal", "setting": "[8]; Accelerated Phase, N = 11", "value": "1 (9) Number (%)"},
      {"measurement": "Cytogenetic Response, Overall", "setting": "[8]; Accelerated Phase, N = 11", "value": "1 (9) Number (%)"},
      {"measurement": "Hematologic Improvement (HI)", "setting": "[8]; Accelerated Phase, N = 11", "value": "1 (9) Number (%)"},
      {"measurement": "Hematologic Response, Overall", "setting": "[8]; Accelerated Phase, N = 11", "value": "5 (45) Number (%)"},
      {"measurement": "Return to Chronic Phase (RCP)", "setting": "[8]; Accelerated Phase, N = 11", "value": "2 (18) Number (%)"},
      {"measurement": "Median Duration of Response, Hematologic Response RCP", "setting": "[8]; Blast Phase, N = 1", "value": 3.4, "unit": "Months"},
      {"measurement": "Hematologic Response, Overall", "setting": "[8]; Blast Phase, N = 8", "value": "1 (13) Number (%)"},
      {"measurement": "Return to Chronic Phase (RCP)", "setting": "[8]; Blast Phase, N = 8", "value": "1 (13) Number (%)"},
      {"measurement": "Median Duration of Response, Cytogenetic Response Partial", "setting": "[8]; Chronic Phase, N = 20", "value": 4.2, "unit": "Months"},
      {"measurement": "Median Duration of Response, Cytogenetic Response Complete", "setting": "[8]; [10]", "value": "4.8 (0.3-9.7+) Months"},
      {"measurement": "Median Duration of Response, Cytogenetic Response Minimal", "setting": "[8]; [10]", "value": "4.0 (3.9-20.8+) Months"},
      {"measurement": "Median Duration of Response, Hematologic Response CHR", "setting": "[8]; [10]", "value": "11.5 (3.5-25.4+) Months"},
      {"measurement": "Complete Hematologic Response (CHR)", "setting": "[8]; Chronic Phase, N = 25", "value": "20 (80) Number (%)"},
      {"measurement": "Cytogenetic Response, Complete", "setting": "[8]; Chronic Phase, N = 25", "value": "4 (16) Number (%)"},
      {"measurement": "Cytogenetic Response, Minimal", "setting": "[8]; Chronic Phase, N = 25", "value": "2 (8) Number (%)"},
      {"measurement": "Cytogenetic Response, Overall", "setting": "[8]; Chronic Phase, N = 25", "value": "7 (28) Number (%)"},
      {"measurement": "Cytogenetic Response, Partial", "setting": "[8]; Chronic Phase, N = 25", "value": "1 (4) Number (%)"},
      {"measurement": "Hematologic Response, Overall", "setting": "[8]; Chronic Phase, N = 25", "value": "20 (80) Number (%)"},
      {"measurement": "Molecular Response, Major", "setting": "[8]; Chronic Phase, N = 25", "value": "2 (8) Number (%)"},
      {"measurement": "Cytogenetic Response, Major*", "setting": "[8]; Chronic Phase, N = 25, one complete and one partial cytogenetic response are unconfirmed", "value": "5 (20) Number (%)"},
      {"measurement": "progression free survival", "setting": "[8]; accelerated phase (AP), after one year", "value": 25, "unit": "%"},
      {"measurement": "progression free survival", "setting": "[8]; blast phase (BP), after 6 months", "value": 44, "unit": "%"},
      {"measurement": "progression free survival", "setting": "[8]; chronic phase (CP), after 1 year", "value": 80, "unit": "%"},
      {"measurement": "progression free survival", "setting": "[8]; chronic phase (CP), after 2 years", "value": 70, "unit": "%"},
      {"measurement": "duration of complete hematologic and cytogenetic responses", "setting": "[8]; in vivo", "value": "up to one year"}
    ]}
  ]
}
